Laboratory results as given in patent publication US10457707B2, “Substituted urea depsipeptide analogs as activators of the CLPP endopeptidase” (priority 2015, dated 2019).
≈ marks a conversion by molar mass, not a printed value. Read-outs that look alike come from different tables or passages of the source. *1 amine or outer side, *2 acyl side, *3 side chain or, on linkers, in order; H or OH if unused. Where a SMILES comes first, the peptide text is derived from it. Bridges are numbered along the chain shown (N, C = ends). [ ]: non-standard residue; d: D form. The star is where a group is joined. ξ: configuration not given here. NH(1,3-benzodioxol-5-yl) = c1cc2c(cc1N*)OCO2; Phe(3,5-F2) = N[C@@H](Cc1cc(F)cc(F)c1)C(=O)O; NH(1-Me-indolin-5-yl) = CN1CCc2cc(N*)ccc21; Morpholine(3S-CO) = O=C(O)[C@@H]1COCCN1; Pro(4S-Me) = C[C@@H]1CN[C@H](C(=O)O)C1; Pro(4R-Me) = C[C@H]1CN[C@H](C(=O)O)C1; ξPro(4R-OH) = O=C(O)C1C[C@@H](O)CN1; NMeaThr = CN[C@H](C(=O)O)[C@H](C)O; ξPro(4R-Me) = C[C@H]1CNC(C(=O)O)C1; Hyp = O=C(O)[C@@H]1C[C@@H](O)CN1; NH(4-Et-phenyl) = CCc1ccc(N*)cc1; NMeT = CN[C@H](C(=O)O)[C@@H](C)O; NH(4-Me-phenyl) = Cc1ccc(N*)cc1; ξNMeThr = CNC(C(=O)O)[C@@H](C)O; aThr = C[C@H](O)[C@H](N)C(=O)O; NMeA = CN[C@@H](C)C(=O)O; X1 = N#Cc1cc(N*)ccc1F; CO = O=C([*:1])[*:2]

What was measured:
[1] = test system: Streptococcus pyogenes, ATCC 700294; test: Minimal inhibitory concentration assay (microbroth dilution); format: cell-based
Summary of the method: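 Plates with two-fold compound dilution series in broth were incubated overnight, aerobically, at 37° C, following CLSI microdilution guidance.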

[2] = test system: Staphylococcus aureus, NRS70; test: as above; format: cell-based
Summary of the method: (§1)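 Visual read-out; MIC is the lowest drug concentration with no bacterial growth after overnight aerobic incubation at 37 °C. Compound was tested in two-fold dilutions starting at 200 μM final, with an inoculum of approximately 10^5 cfu/mL, following CLSI microdilution guidance.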

[3] = test system: Staphylococcus aureus, ATCC 29213; test: as above; format: cell-based; settings: ATCC29213, read-out: Minimal Inhibitory Concentrations S. aureus ATCC 29213
Summary of the method: as §1

[4] = test system: Bacillus subtilis, ATCC 23857; test: as above; format: cell-based
Summary of the method: as §1

Sa-ClpP = target: T1, Sa-ClpP (Staphylococcus aureus, UniProt Q2G036); test: ADEP displacement fluorescence polarization assay (FP probe ADEP 2591); format: binding
T1 construct: made in house; host or cells: E. coli BL21(DE3)
T1 sequence (Q2G036 1-195): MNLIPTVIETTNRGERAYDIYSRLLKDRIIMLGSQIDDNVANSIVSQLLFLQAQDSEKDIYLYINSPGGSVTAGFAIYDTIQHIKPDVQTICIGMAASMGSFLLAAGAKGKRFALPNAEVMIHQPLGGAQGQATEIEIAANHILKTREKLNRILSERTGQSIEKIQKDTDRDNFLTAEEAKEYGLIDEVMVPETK
Summary of the method: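 Probe displacement was measured in mP after compounds sat 120 min at room temperature with pre-equilibrated (1 h) Sa-ClpP (15 μM) and ADEP 2591 FP probe (50 nM) in pH 8.0 Tris-HCl with 2% DMSO. Data were scaled between DMSO and 200 μM ADEP 2378 and fit by variable-slope log-inhibitor regression.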

[5] = Streptococcus pyogenes, ATCC700294, read-out: Minimal Inhibitory Concentrations S. pyogenes ATCC 700294
[6] = Staphylococcus aureus, NRS70, read-out: Minimal Inhibitory Concentrations S. aureus NRS70
[7] = Bacillus subtilis, ATCC23857, read-out: Minimal Inhibitory Concentrations B. subtilis ATCC 23857
[8] = Streptococcus pyogenes, ATCC700294; read-out: Minimal Inhibitory Concentrations S. pyogenes ATCC 700294
[9] = Staphylococcus aureus, NRS70; read-out: Minimal Inhibitory Concentrations S. aureus NRS70
[10] = Bacillus subtilis, ATCC23857; read-out: Minimal Inhibitory Concentrations B. subtilis ATCC 23857
[11] = displacement of FP probe ADEP 2591 from Sa-ClpP, read-out: ADEP Displacement IC50

Structure (SMILES)	MIC [1, 5]	MIC [2, 6]	MIC [3]	MIC [4, 7]	IC50 (Sa-ClpP)	MIC [1, 8]	MIC [2, 9]	MIC [4, 10]	IC50 (Sa-ClpP; [11])
Cc1ccc(NC(=O)N[C@@H](Cc2cc(F)cc(F)c2)C(=O)N[C@@H]2C(=O)N3C[C@H](O)CC3C(=O)N(C)[C@@H](C)C(=O)N[C@@H](C)C(=O)N3C[C@H](C)CC3C(=O)O[C@H]2C)cc1 (stereo partly drawn) [Compound 31, (S)-3-(3,5-difluorophenyl)-N-((2S,6S,9S,11aS,13R,17S,18S,20aS)-13-hydroxy-2,6,9,10,18-pentamethyl-5,8,11,16,20-pentaoxohexadecahydro-1H,5H,16H-dipyrrolo[2,1-c:2′,1′-l][1]oxa[4,7,10,13]tetraazacyclohexadecin-17-yl)-2-(3-(p-tolyl)ureido)propanamide] ({NH(4-Me-phenyl)-CO}-[Phe(3,5-F2)][aThr][ξPro(4R-OH)][NMeA]A[ξPro(4R-Me)]; ester 2-C)	0.78 µM (≈ 0.622 µg/mL)	0.39 µM (≈ 0.311 µg/mL)	0.39 µM (≈ 0.311 µg/mL)	0.39 µM (≈ 0.311 µg/mL)	5.8 ± 0.3 µM	–	–	–	–
C[C@@H]1C[C@H]2C(=O)O[C@@H](C)[C@H](NC(=O)[C@H](Cc3cc(F)cc(F)c3)NC(=O)Nc3ccc(F)c(C#N)c3)C(=O)N3C[C@H](O)C[C@H]3C(=O)N3CCOC[C@H]3C(=O)N[C@@H](C)C(=O)N2C1 [Compound 326, (S)-2-(3-(3-cyano-4-fluorophenyl)ureido)-3-(3,5-difluorophenyl)-N-((6aS,8R,12S,13S,15aS,17R,21S,23aS)-8-hydroxy-13,17,21-trimethyl-6,11,15,20,23-pentaoxooctadecahydro-6H,11H,15H-[1,4]oxazino[3,4-i]dipyrrolo[2,1-c:2′,1′-l][1]oxa[4,7,10,13]tetraazacyclo-hexadecin-12-yl)propanamide] ({X1-CO}-[Phe(3,5-F2)][aThr][Hyp][Morpholine(3S-CO)]A[Pro(4R-Me)]; ester 2-C)	–	–	10 µM (≈ 8.55 µg/mL)	–	7.52 ± 0.3 µM	1.25 µM (≈ 1.07 µg/mL)	2.5 µM (≈ 2.14 µg/mL)	20 µM (≈ 17.1 µg/mL)	–
Cc1ccc(NC(=O)N[C@@H](Cc2cc(F)cc(F)c2)C(=O)N[C@H]2COC(=O)[C@@H]3C[C@@H](C)CN3C(=O)[C@H](C)NC(=O)C3CCCCN3C(=O)[C@@H]3C[C@@H](O)CN3C2=O)cc1 (stereo partly drawn) [Compound 323, (S)-3-(3,5-difluorophenyl)-N-((2R,6S,8aR,14aS,16R,20S,23aS)-16-hydroxy-2,6-dimethyl-5,8,14,19,23-pentaoxooctadecahydro-1H,5H,14H,19H-pyrido[2,1-i]dipyrrolo[2,1-c:2′,1′-l][1]oxa[4,7,10,13]tetraazacyclohexadecin-20-yl)-2-(3-(p-tolyl)ureido)propanamide]	0.156 µM (≈ 0.126 µg/mL)	0.625 µM (≈ 0.506 µg/mL)	0.625 µM (≈ 0.506 µg/mL)	0.313 µM (≈ 0.253 µg/mL)	9.18 ± 0.4 µM	–	–	–	–
C[C@@H]1C[C@H]2C(=O)O[C@@H](C)[C@H](NC(=O)[C@H](Cc3cc(F)cc(F)c3)NC(=O)Nc3ccc4c(c3)OCO4)C(=O)N3C[C@H](O)C[C@H]3C(=O)N3CCOC[C@H]3C(=O)N[C@@H](C)C(=O)N2C1 [Compound 319, (S)-2-(3-(benzo[d][1,3]dioxol-5-yl)ureido)-3-(3,5-difluorophenyl)-N-((6aS,8R,12S,13S,15aS,17R,21S,23aS)-8-hydroxy-13,17,21-trimethyl-6,11,15,20,23-pentaoxooctadecahydro-6H,11H,15H-[1,4]oxazino[3,4-i]dipyrrolo[2,1-c:2′,1′-l][1]oxa[4,7,10,13]tetraazacyclo-hexadecin-12-yl)propanamide] ({NH(1,3-benzodioxol-5-yl)-CO}-[Phe(3,5-F2)][aThr][Hyp][Morpholine(3S-CO)]A[Pro(4R-Me)]; ester 2-C)	–	–	2.5 µM (≈ 2.14 µg/mL)	–	7.75 ± 0.6 µM	0.313 µM (≈ 0.268 µg/mL)	5 µM (≈ 4.28 µg/mL)	10 µM (≈ 8.56 µg/mL)	–
Cc1ccc(NC(=O)N[C@@H](Cc2cc(F)cc(F)c2)C(=O)N[C@@H]2C(=O)N3CCC[C@H]3C(=O)N(C)[C@@H]([C@@H](C)O)C(=O)N[C@@H](C)C(=O)N3C[C@@H](C)C[C@H]3C(=O)O[C@H]2C)cc1 [Compound 35, (S)-3-(3,5-difluorophenyl)-N-((2S,6S,9S,11aS,17S,18S,20aS)-9-((R)-1-hydroxyethyl)-2,6,10,18-tetramethyl-5,8,11,16,20-pentaoxohexadecahydro-1H,5H,16H-dipyrrolo[2,1-c:2′,1′-l][1]oxa[4,7,10,13]tetraazacyclohexadecin-17-yl)-2-(3-(p-tolyl)ureido)propanamide] ({NH(4-Me-phenyl)-CO}-[Phe(3,5-F2)][aThr]P[NMeT]A[Pro(4S-Me)]; ester 2-C)	0.39 µM (≈ 0.317 µg/mL)	0.1 µM (≈ 0.0812 µg/mL)	0.2 µM (≈ 0.162 µg/mL)	0.2 µM (≈ 0.162 µg/mL)	6.6 ± 0.4 µM	–	–	–	–
CCc1ccc(NC(=O)N[C@@H](Cc2cc(F)cc(F)c2)C(=O)N[C@@H]2C(=O)N3CCC[C@H]3C(=O)N(C)[C@@H]([C@H](C)O)C(=O)N[C@@H](C)C(=O)N3C[C@@H](C)C[C@H]3C(=O)O[C@H]2C)cc1 [Compound 204, (S)-3-(3,5-difluorophenyl)-2-(3-(4-ethylphenyl)ureido)-N-((2S,6S,9S,11aS,17S,18S,20aS)-9-((S)-1-hydroxyethyl)-2,6,10,18-tetramethyl-5,8,11,16,20-pentaoxohexadecahydro-1H,5H,16H-dipyrrolo[2,1-c:2′,1′-l][1]oxa[4,7,10,13]tetraazacyclohexadecin-17-yl)propanamide] ({NH(4-Et-phenyl)-CO}-[Phe(3,5-F2)][aThr]P[NMeaThr]A[Pro(4S-Me)]; ester 2-C)	–	–	0.098 µM (≈ 0.0809 µg/mL)	–	–	0.098 µM (≈ 0.0809 µg/mL)	0.098 µM (≈ 0.0809 µg/mL)	0.049 µM (≈ 0.0405 µg/mL)	7 ± 0.4 µM
C[C@@H]1C[C@H]2C(=O)O[C@@H](C)[C@H](NC(=O)[C@H](Cc3cc(F)cc(F)c3)NC(=O)Nc3ccc4c(c3)CCN4C)C(=O)N3CCC[C@H]3C(=O)N(C)C([C@@H](C)O)C(=O)N[C@@H](C)C(=O)N2C1 (stereo partly drawn) [Compound 311, (S)-3-(3,5-difluorophenyl)-N-((2R,6S,9R,11aS,17S,18S,20aS)-9-((R)-1-hydroxyethyl)-2,6,10,18-tetramethyl-5,8,11,16,20-pentaoxohexadecahydro-1H,5H,16H-dipyrrolo[2,1-c:2′,1′-l][1]oxa[4,7,10,13]tetraazacyclohexadecin-17-yl)-2-(3-(1-methylindolin-5-yl)ureido)propanamide] ({NH(1-Me-indolin-5-yl)-CO}-[Phe(3,5-F2)][aThr]P[ξNMeThr]A[Pro(4R-Me)]; ester 2-C)	0.156 µM (≈ 0.133 µg/mL)	0.156 µM (≈ 0.133 µg/mL)	0.156 µM (≈ 0.133 µg/mL)	0.313 µM (≈ 0.267 µg/mL)	7.5 ± 0.3 µM	–	–	–	–
Cc1ccc(NC(=O)N[C@@H](Cc2cc(F)cc(F)c2)C(=O)N[C@@H]2C(=O)N3C[C@H](O)C[C@H]3C(=O)N(C)[C@@H](C)C(=O)N[C@@H](C)C(=O)N3C[C@@H](C)C[C@H]3C(=O)O[C@H]2C)cc1 [Compound 214, (S)-3-(3,5-difluorophenyl)-N-((2S,6S,9S,11aS,13R,17S,18S,20aS)-13-hydroxy-2,6,9,10,18-pentamethyl-5,8,11,16,20-pentaoxohexadecahydro-1H,5H,16H-dipyrrolo[2,1-c:2′,1′-l][1]oxa[4,7,10,13]tetraazacyclohexadecin-17-yl)-2-(3-(p-tolyl)ureido)propanamide] ({NH(4-Me-phenyl)-CO}-[Phe(3,5-F2)][aThr][Hyp][NMeA]A[Pro(4S-Me)]; ester 2-C)	0.781 µM (≈ 0.623 µg/mL)	0.391 µM (≈ 0.312 µg/mL)	0.391 µM (≈ 0.312 µg/mL)	0.391 µM (≈ 0.312 µg/mL)	–	–	–	–	5.8 ± 0.3 µM
C[C@@H]1C[C@H]2C(=O)O[C@@H](C)[C@H](NC(=O)[C@H](Cc3cc(F)cc(F)c3)NC(=O)Nc3ccc4c(c3)CCN4C)C(=O)N3C[C@H](O)C[C@H]3C(=O)N3CCOC[C@H]3C(=O)N[C@@H](C)C(=O)N2C1 [Compound 315, (S)-3-(3,5-difluorophenyl)-N-((6aS,8R,12S,13S,15aS,17R,21S,23aS)-8-hydroxy-13,17,21-trimethyl-6,11,15,20,23-pentaoxooctadecahydro-6H,11H,15H-[1,4]oxazino[3,4-i]dipyrrolo[2,1-c:2′,1′-l][1]oxa[4,7,10,13]tetraazacyclohexadecin-12-yl)-2-(3-(1-methylindolin-5-yl)ureido)propanamide] ({NH(1-Me-indolin-5-yl)-CO}-[Phe(3,5-F2)][aThr][Hyp][Morpholine(3S-CO)]A[Pro(4R-Me)]; ester 2-C)	0.625 µM (≈ 0.542 µg/mL)	5 µM (≈ 4.33 µg/mL)	5 µM (≈ 4.33 µg/mL)	20 µM (≈ 17.3 µg/mL)	13.5 ± 0.6 µM	–	–	–	–
